# Data reported in patent US20040219102A1, “Compositions for drug delivery” (priority 2003, published 2004).
# Where two headings read alike, the source gives them in different places.
# Columns and labels:
# JJ5 Breast Cancer cells [1] = conditions: cultured 4 days
# Description: The number of cells seeded was varied from 3×10^4 to 3×10^6 cells to obtain approximately 350 viable colonies/dish taking into account the plating efficiency and the expected level of cytotoxicity. Control dishes contained JJ5 breast cancer cells which were incubated with normal saline. Growth medium was added and the cells were cultured at 37° C./5% CO2 for 4 days. The growth medium was removed and the colonies were stained with methylene blue (1% in a 1:1 mixture of ethanol and water) then washed twice. The number of colonies per dish was counted using a manual colony counter (Manostat Corp). The plating efficiency was calculated by dividing the number of colonies observed by the number of cells seeded in each dish.
# JJ5 Breast Cancer cells [2] = test: Growth inhibition assay of EGF-111In-labeled transferrin composition against JJ5 breast cancer cells; assay type: cell-based, human; conditions: cultured 4 days
# Description: JJ5 breast cancer cells (prepared from BCBM JJ5) expressing approximately 10^6 epidermal growth factor receptors/cell were incubated with EGF-^111In-labeled transferrin composition, unlabeled hEGF or ^111In-oxine, centrifuged to remove free ligand, then assayed and seeded (10^6 cells/dish) into 35 mm culture dishes.
# JJ5 Breast Cancer cells [3] = test: Cytotoxicity (colony-forming) assay of EGF-111In-labeled transferrin composition against JJ5 breast cancer cells; assay type: cell-based, human; conditions: 14 days
# Description: JJ5 breast cancer cells were incubated with increasing amounts EGF-^111In-labeled transferrin composition or ^111In-oxine, centrifuged to remove free ligand, assayed and then seeded into 50 mm culture dishes. […] The growth medium was removed and the colonies were stained with methylene blue (1% in a 1:1 mixture of ethanol and water) then washed twice.
# Using a colony-forming assay, the radiotoxicity of internalization for JJ5 breast cancer cells was evaluated.
# JJ5 Breast Cancer cells [4] = test: Binding of EGF-111In-labeled transferrin composition to breast cancer cells; design: species or system human
# Source text: For the normal breast cell line HBL-100, 8000 EGFR/cell has been reported. The expression of EGFR in breast cancer cell lines has a reported range of 800 EGFR/cell for MCF-7 cells to 10^6 EGFR/cell for MDA-MB-468 cells. […] Utilizing the Auger electron emitter ^111In was used in the initial experiments to illustrate the utility of the invention using EGF-^111In-labeled transferrin compositions. […] The cells were transferred to a centrifuge tube and centrifuged. The cell pellet was separated from the supernatant and counted in a g-scintillation counter to determine bound (B) and free (F) radioactivity. Non-specific binding was determined by conducting the assay in 100 nM hEGF. […] Internalized fraction was measured by determining the proportion of radioactivity which could not be displaced from the cell surface by 100 nM hEGF. Cell-associated binding (surface-binding and intracellular accumulation) was expressed as a percentage of medium radioactivity bound per mg of cell study protein. […] EGF-^111In-labeled transferrin composition was rapidly bound by the breast cancer cells and retained for at least 24 hours. Over a 24 hour period at 37° C., <8% was lost from the cells in vitro.
molecule,measurement,setting,value
COc1cccc2c1C(=O)c1c(O)c3c(c(O)c1C2=O)C[C@@](O)(C(=O)CO)C[C@@H]3O[C@H]1C[C@H](N)[C@H](O)[C@H](C)O1 [Doxorubicin],growth inhibition of the JJ5 cells compared to the medium control,JJ5 Breast Cancer cells [1],95%
"[In+3].[O-]c1cccc2cccnc12.[O-]c1cccc2cccnc12.[O-]c1cccc2cccnc12 [^111In-oxine, reference compound]",growth inhibition of the JJ5 cells compared to the medium control,JJ5 Breast Cancer cells [2]; 3.5 pCi/cell,91%
same,cell killing,JJ5 Breast Cancer cells [3]; at <6 pCi/cell,greater than 99%
EGF-^111In-labeled transferrin composition,time retained by the breast cancer cells,JJ5 Breast Cancer cells [4]; 37° C.,at least 24 hours
same,affinity constant for binding to JJ5 cells,"JJ5 Breast Cancer cells [4]; 37° C., 30 minutes, non-specific binding in 100 nM hEGF",8e+08 L/mol
same,number of binding sites,JJ5 Breast Cancer cells [4]; JJ5 cells,2.7×10^6
same,111In radioactivity lost from the cells in vitro,JJ5 Breast Cancer cells [4]; over a 24 hour period at 37° C.,< 8%
same,growth inhibition of the JJ5 cells compared to the medium control,JJ5 Breast Cancer cells [2]; 3.4 pCi/cell,83%
same,reduction in cell survival,JJ5 Breast Cancer cells [3]; 8 pCi/cell,99%
